Assay results from patent US12031986B2, “Polypeptide for targeting recognition of immune cells and application thereof” (KEYANGLE LIFE TECHNOLOGY CO., LTD., priority 2019, dated 2024).
Entries after “also recorded” stand apart in the source; their conditions may differ. No end group written: not given here. K(rhodamine) = not defined here; code X = not defined here

Test system: mouse peritoneal macrophages
Assay: In vivo fluorescent labeling of macrophages in a mouse abdominal cavity
Settings: for in vivo labeling / recognition of mouse peritoneal macrophages by the fluorescent probe: probe injected into abdominal cavity, cells extracted after 4 hours, fluorescence microscope
Experimental: Dilute 300 μL of 50 μM AK9 fluorescent probe solution with serum-free DMEM incomplete medium to obtain 1 mL of solution, then inject into the abdominal cavities of 5-8 week old Kunming mice. After 4 hours, inject 5 mL of 1×PBS, and massage. After 10 minutes, sacrifice the mice by cervical vertebra dislocation. Cut the abdominal cavity skin of the mice, pierce the abdominal wall muscle by syringe, and extract the fluid in the abdominal cavity of the mice. Centrifuge the extracted peritoneal fluid at 1000 rpm for 5 min, wash twice with 1×PBS. Double-stain an appropriate number of cells with Alexa Fluor 488 anti-mouse F4/80 antibody (Biolegend). Add the stained cells to a 96-well plate and stain with a nuclear dye Nucblue (Invitrogen). Observe under EVOS FL Auto fluorescence microscope (Life Technologies, 20×, light source 50%, exposure 200 ms, gain 10) after the suspended cells were settled down at the bottom of the plate.
Table 1 lists probes, which contain the polypeptide fragments from the C-terminal fragments of Triokinases/FMN cyclases of different species and were prepared by a similar process as described in Examples 1 and 2, and in vivo imaging results of mouse peritoneal macrophages using these probes.

Substance | in vivo labeling / recognition of mouse peritoneal macrophages by the fluorescent probe | labeling on the same cells, probe and F4/80 antibody (in vivo probe labeling, then F4/80 antibody double-stain of extracted peritoneal cells)
X-DQPDPGAVAAAAIFRAILEVLQTKAA ({code X}-DQPDPGAVAAAAIFRAILEVLQTKAA; reading uncertain; also: reporter type not given here, printed as X-DQPDPGAVAAAAIFRAILEVLQTKAA; listed as Rattus norvegicus) [r-KA27, X = reporter or cysteine/lysine + reporter] | can effectively recognize macrophages in vivo; also recorded: can be labeled | 
LQPDPGAVAAAAVLRAVLEGLQG-Y (LQPDPGAVAAAAVLRAVLEGLQGY; also: reporter type not given here; listed as Gallus gallus) [LK24, Y = reporter or cysteine/lysine + reporter] | can effectively recognize macrophages in vivo; also recorded: can also be labeled | 
AAILRAILEVLQS-Y (AAILRAILEVLQSY; also: C-terminal Y: reporter or Cys/Lys + reporter (rhodamine or FITC), not given here; listed as Homo sapiens) [AK14, Y = reporter or cysteine/lysine + reporter] | can effectively recognize macrophages in vivo; also recorded: can be labeled | 
LRAILEVLQS-Y (LRAILEVLQSY; also: reporter type not given here; listed as Homo sapiens) [LK11, Y = reporter or cysteine/lysine + reporter] | can effectively recognize macrophages in vivo; also recorded: can be labeled | 
X-DQPDPGAVAAAAILRAILEVLQSQGA ({code X}-DQPDPGAVAAAAILRAILEVLQSQGA; reading uncertain; also: reporter type not given here, printed as X-DQPDPGAVAAAAILRAILEVLQSQGA; listed as Sus scrofa) [b-KA27, X = reporter or cysteine/lysine + reporter] | can effectively recognize macrophages in vivo; also recorded: can be labeled | 
AILEVLQS-Y (AILEVLQS-{K(rhodamine)}; reading uncertain) [AK9, Human Triokinase/FMN cyclase C-terminal fragment; Y is lysine + rhodamine fluorescent labeling group on the lysine side chain] | can effectively recognize macrophages in vivo | labeled on the same cells
PGAVAAAAILRAILEVLQS-Y (PGAVAAAAILRAILEVLQSY; also: reporter type not given here; listed as Homo sapiens) [PK20, Y = reporter or cysteine/lysine + reporter] | can effectively recognize macrophages in vivo; also recorded: can be labeled | 
X-DQPDPGAVAAAAILRTILEVLQSQGV ({code X}-DQPDPGAVAAAAILRTILEVLQSQGV; reading uncertain; also: reporter type not given here, printed as X-DQPDPGAVAAAAILRTILEVLQSQGV; listed as Canis lupus) [d-KV27, X = reporter or cysteine/lysine + reporter] | can effectively recognize macrophages in vivo; also recorded: can be labeled | 
LQPDPSAVAAAAVLRAVLEVLQG-Y (LQPDPSAVAAAAVLRAVLEVLQGY; also: reporter type not given here) [Cx-LK24, Y = reporter or cysteine/lysine + reporter] | can be labeled | 
VLRAVLEVLQG-Y (VLRAVLEVLQGY; also: reporter type not given here) [Hx-VVGK12, Y = reporter or cysteine/lysine + reporter] | can be labeled | 
